Measured values as given in PubChem BioAssay (NCI).
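Dose response: 5 concentrations. Exposure: 48 h. Format: 96-well plates. Endpoint: linear interpolation; highest concentration if not reached. Definition used: TGI = concentration required for complete inhibition of growth.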

How the values were obtained:
Assay in all cases: growth of human tumour cells (NCI), 48 h
OVCAR-4 ovarian = system: OVCAR-4 ovarian
M14 melanoma = system: M14 melanoma
RXF 393 renal = system: RXF 393 renal
OVCAR-5 ovarian = system: OVCAR-5 ovarian
K-562 leukemia = system: K-562 leukemia
HL-60(TB) leukemia = system: HL-60(TB) leukemia
SF-268 CNS = system: SF-268 CNS
UACC-257 melanoma = system: UACC-257 melanoma
KM20L2 colon = system: KM20L2 colon
SNB-19 CNS = system: SNB-19 CNS
CAKI-1 renal = system: CAKI-1 renal
DLD-1 colon = system: DLD-1 colon
HT29 colon = system: HT29 colon
SK-MEL-5 melanoma = system: SK-MEL-5 melanoma
DMS 114 small cell lung = system: DMS 114 small cell lung
OVCAR-3 ovarian = system: OVCAR-3 ovarian
SK-MEL-2 melanoma = system: SK-MEL-2 melanoma
UO-31 renal = system: UO-31 renal
RXF-631 renal = system: RXF-631 renal
HCT-15 colon = system: HCT-15 colon
SNB-78 CNS = system: SNB-78 CNS
SN12C renal = system: SN12C renal
TK-10 renal = system: TK-10 renal
EKVX NSCLC = system: EKVX NSCLC
SF-295 CNS = system: SF-295 CNS
MOLT-4 leukemia = system: MOLT-4 leukemia
RPMI-8226 leukemia = system: RPMI-8226 leukemia
SW-620 colon = system: SW-620 colon
LOX IMVI melanoma = system: LOX IMVI melanoma
IGROV1 ovarian = system: IGROV1 ovarian
HOP-62 NSCLC = system: HOP-62 NSCLC
MALME-3M melanoma = system: MALME-3M melanoma
A549 NSCLC = system: A549 NSCLC
SF-539 CNS = system: SF-539 CNS
SR leukemia = system: SR leukemia
786-0 renal = system: 786-0 renal
CCRF-CEM leukemia = system: CCRF-CEM leukemia
KM12 colon = system: KM12 colon
COLO 205 colon = system: COLO 205 colon
ACHN renal = system: ACHN renal
U251 CNS = system: U251 CNS
HOP-18 NSCLC = system: HOP-18 NSCLC
M19-MEL melanoma = system: M19-MEL melanoma
LXFL 529 NSCLC = system: LXFL 529 NSCLC
DMS 273 small cell lung = system: DMS 273 small cell lung
NCI-H226 lung = system: NCI-H226 lung
HOP-92 NSCLC = system: HOP-92 NSCLC
HCT-116 colon = system: HCT-116 colon
A498 renal = system: A498 renal
NCI-H23 lung = system: NCI-H23 lung
SK-MEL-28 melanoma = system: SK-MEL-28 melanoma
NCI-H460 lung = system: NCI-H460 lung
UACC-62 melanoma = system: UACC-62 melanoma
SK-OV-3 ovarian = system: SK-OV-3 ovarian
SNB-75 CNS = system: SNB-75 CNS
HCC-2998 colon = system: HCC-2998 colon
OVCAR-8 ovarian = system: OVCAR-8 ovarian
NCI-H522 lung = system: NCI-H522 lung
XF 498 CNS = system: XF 498 CNS

Measured: TGI

CCc1cccc(C(C)C)c1C1C(=O)C(=O)N(c2nc3ccccc3s2)C(=O)C1=O
not listed: OVCAR-8 ovarian | NCI-H522 lung | XF 498 CNS
> 100 µM: all other assays above

CC(C)CCC[C@@H](C)[C@H]1CC[C@H]2[C@@H]3CC=C4CC(OCCCCN(O)CCCSC5OC(CO)C(O)C(O)C5O)CC[C@]4(C)[C@H]3CC[C@]12C (stereo not given in full)
49.4 µM: SW-620 colon
50 µM: IGROV1 ovarian
56.3 µM: M14 melanoma
45.6 µM: DMS 114 small cell lung
72 µM: CCRF-CEM leukemia
32.5 µM: 786-0 renal
50.7 µM: LOX IMVI melanoma
49.6 µM: NCI-H522 lung
47.3 µM: COLO 205 colon | LXFL 529 NSCLC
32.8 µM: SF-539 CNS
75.1 µM: U251 CNS
92.1 µM: SK-MEL-2 melanoma
not listed: OVCAR-3 ovarian | RXF-631 renal | MALME-3M melanoma | HOP-18 NSCLC | NCI-H226 lung | HCC-2998 colon
> 100 µM: all other assays above

O=C(Cc1nc2ccccc2s1)C(=O)Nc1ccccc1C(F)(F)F
not listed: RXF-631 renal | RPMI-8226 leukemia | SR leukemia
> 100 µM: all other assays above

COc1nc(NC2OCC(OC(C)=O)C(OC(C)=O)C2OC(C)=O)c(N=C(C)C(C)=O)c(=O)n1C (stereo not given)
not listed: OVCAR-3 ovarian | HOP-62 NSCLC | 786-0 renal | M19-MEL melanoma | LXFL 529 NSCLC | UACC-62 melanoma | SK-OV-3 ovarian | HCC-2998 colon | NCI-H522 lung
> 100 µM: all other assays above
